Compound: COc1cc(N2CCC(N3CCN(C)CC3)CC2)ccc1Nc1ncc(Cl)c(Nc2ccccc2S(=O)(=O)C(C)C)n1 [NVP-TAE684] + Cc1cc(Nc2cc(N3CCN(C)CC3)nc(Sc3ccc(NC(=O)C4CC4)cc3)n2)n[nH]1 [Tozasertib] (partner 0.1 µM)
Assay: relative viability (nuclei count vs DMSO), 5 days (fraction); higher = more cells survive
Method in brief: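 Five library-drug doses in √10 steps were combined with a fixed anchor-drug dose, or a single drug was given alone, by pin tool to lung cancer cell lines in 1536-well plates the day after seeding. Nuclei were stained and counted after 5 days. Relative viability is the nuclei count in treated wells over that in vehicle wells, taken as the median of duplicate plates.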

Cell Line	relative viability (first compound 0.2 µM)	relative viability (first compound 0.6325 µM)	relative viability (first compound 2 µM)
NCI-H2087	0.22	0.262	0.166
LCLC-103H	0.432	0.433	0.303
NCI-H1623	0.442	0.427	0.393
PC-14	0.627	0.531	0.461
H3255	0.639	0.717	0.409
NCI-H2342	0.572	0.485	0.297
NCI-H460	0.671	0.498	0.4
HOP-62	0.397	0.386	0.294
HCC-78	0.361	0.429	0.217
NCI-H2085	0.803	0.781	0.379
COR-L23	0.197	0.223	0.138
HARA	0.0965	0.0875	0.0538
201T	0.925	0.942	0.536
EMC-BAC-2	0.284	0.266	0.233
NCI-H441	0.608	0.554	0.266
NCI-H1944	0.271	0.248	0.225
NCI-H727	0.495	0.532	0.32
NCI-H1993	0.626	0.543	0.476

Cell Line	relative viability (first compound 0.2 µM)	relative viability (first compound 0.6325 µM)	relative viability (first compound 2 µM)
ChaGo-K-1	0.214	0.206	0.16
NCI-H3122	0.156	0.091	0.118
NCI-H1651	0.931	0.695	0.576
NCI-H1355	0.521	0.471	0.301
NCI-H596	1.17	0.883	0.861
NCI-H23	0.402	0.367	0.241
HCC-366	0.108	0.124	0.0322
NCI-H2126	0.96	0.764	0.407
LU99A	0.298	0.293	0.206
NCI-H650	0.669	0.69	0.498
LXF-289	0.263	0.168	0.0842
CAL-12T	0.278	0.315	0.117
SK-MES-1	0.958	0.892	0.48
SW 1573	0.216	0.16	0.139
NCI-H1975	1.01	0.732	0.206
NCI-H647	0.0998	0.288	0.115
NCI-H322M	0.42	0.414	0.294
NCI-H1648	0.413	0.458	0.262

Source: the supplement of paper PMC10307832
